{
  "source": "patent US20100028259A1",
  "about": "“USE OF ORGANIC CATION TRANSPORTERS FOR CANCER DIAGNOSIS AND THERAPY” (The Regents of the University of California, priority 2006, published 2010)",
  "key": {"[1]": {"test_system": "HEK-hOCT2 cells", "assay": "Platinum-DNA adduct formation in HEK-hOCT2 cells", "format": "cell-based, human", "details": "2-hr exposure", "experimental": "(§1) After incubation at 37° C. and 5% CO2 for 2 hours, the cells were washed with ice-cold PBS three times and harvested. The genomic DNA was isolated from the cells and the platinum content associated with DNA was determined by ICP-MS and normalized for DNA content. Data are expressed as mean±SD from a typical experiment performed in triplicate. Two independent experiments were conducted and similar results were obtained.\n(§2) The platinum content associated with genomic DNA was determined as described in Samimi et al., Clin. Cancer Res., 10:4661-4669 (2004) with some modifications. Briefly, the cells were grown in 100 mm×20 mm dishes in the culture medium without any antibiotics to over 90% confluence. For HEK 293 cells, poly-D-lysine coated dishes were used. Then, the cells were incubated in the culture medium containing the specified concentrations of the platinum-based compounds at 37° C. in 5% CO2 for 2 hours (or 25 min as specified). In some experiments, phosphate buffer (PB: 1.06 mM KH2PO4, 2.97 mM Na2HPO4, pH 7.4) containing 155 mM NaCl (PB—Cl buffer) or 103 mM Na2SO4 (PB—SO4 buffer) was used instead of the culture medium as specified. For the OCT inhibitor study, the incubation medium (buffer) also contained disopyramide or cimetidine). If PB—Cl or PB—SO4 buffer was used, the cells were washed with the same buffer once before drug incubation. After incubation, the cells were washed with ice-cold PBS, scraped, and pelleted. Genomic DNA was isolated from the cell pellets using the Wizard® Genomic DNA Purification Kit (Promega, Madison, Wis.) following the manufacturer's instructions. Briefly, the cells were lysed with Nuclei Lysis Solution. After RNA digestion and protein precipitation, the lysates were centrifuged and the resulting supernatant was aliquoted. The genomic DNA prepared from two different aliquots of the supernatant was used for platinum and DNA content determination, respectively. For the determination of platinum, the DNA samples were treated with 70% nitric acid at 65° C. and diluted in the same way as described above. The platinum content was analyzed using ICP-MS and the DNA content was measured by absorption spectroscopy."}, "[2]": {"test_system": "MDCK-MOCK cells", "assay": "MTT drug sensitivity assay in MDCK-MOCK cells", "format": "cell-based, canine", "experimental": "(§3) Cytotoxicity of the platinum-based compounds was measured by MTT (thiazolyl blue tetrazolium bromide) assay. Cells were seeded in 100 μl of the culture medium without any antibiotics in 96-well plates at a predetermined cell density. For HEK 293 cells, poly-D-lysine coated plates were used. After overnight incubation, the platinum-based compounds were then added to the culture medium to give the indicated final concentrations. For the OCT inhibitor studies, the inhibitors (i.e., disopyramide or cimetidine) were added to the medium at a specified concentration immediately before the addition of the platinum-based compounds. After incubation for a specified time period, the drug-containing medium was replaced with fresh, drug-free medium and the incubation was continued for a total of 72 hours (start from the addition of platinum-based compounds). Then, the MTT assay was performed similarly as described in Alley et al., Cancer Res., 48:589-601 (1988). […] The maximal cell growth was the cell growth in the medium without any platinum-based compounds; C is the concentration of the platinum-based compound, and γ is the slope factor.\n(§4) Briefly, the cells were seeded in 96-well plates at a density of 5,000 cells/well for the transfected MDCK cells or 12,000 cells/well for the transfected HEK 293 cells. The platinum-based drugs were added on the following day. After the specified time periods of drug exposure, the drug-containing medium was replaced with fresh, drug-free medium, and the incubation was continued for a total of 72 hours (start from the time when the drug was added). After incubation, the cell growth was determined by an MTT assay. Data are expressed as mean±SD from 3 to 6 independent experiments with each performed in quadruplicate. The resistance factor (RF) was defined as the ratio of the mean IC50 value in the MOCK cells to that in the OCT-transfected cells.\nBriefly, MDCK cells were seeded at a density of 5,000 cells/well in 96-well plates and exposed to the test compounds for 7 hours on the following day. After incubation for a total of 72 hours, the cell growth was determined by an MTT assay. The data for carboplatin was taken from Table 1 and was not determined simultaneously with the other compounds. The resistance factor (RF) was defined as the ratio of the mean IC50 value in MDCK-MOCK cells to that in MDCK-hOCT1 cells. Data are expressed as mean±SD from six measurements, and each measurement was performed in quadruplicate."}, "[3]": {"test_system": "HEK-MOCK cells", "assay": "MTT drug sensitivity assay in HEK-MOCK cells (control of HEK-hOCT2)", "format": "cell-based, human", "experimental": "as §3, §4"}, "[4]": {"test_system": "MDCK-MOCK cells", "assay": "Platinum-DNA adduct formation in MDCK-MOCK cells", "format": "cell-based, canine", "experimental": "as §1\nAfter incubation, the cells were washed with ice-cold PBS three times and harvested. Genomic DNA was isolated from the harvested cells and the DNA-associated platinum content was determined by ICP-MS and normalized for the DNA content. Data are expressed as mean±SD of three measurements.\nas §2"}, "[5]": {"test_system": "HEK-MOCK cells", "assay": "MTT drug sensitivity assay in HEK-MOCK cells (control of HEK-hOCT3)", "format": "cell-based, human", "details": "Table 3", "experimental": "as §3, §4"}},
  "note": "Read-outs that look alike come from different tables or passages of the source.",
  "data": [
    {"smiles": "O=C1[O][Pt]2([NH][C@@H]3CCCC[C@H]3[NH]2)[O]C1=O", "note": "[oxaliplatin]", "values": [
      {"measurement": "platinum-DNA adduct level in HEK-hOCT2, cimetidine", "setting": "[1]; cimetidine 1.5 mM", "result": "0.00216±0.00031", "unit": "pmol/μg DNA"},
      {"measurement": "rb in HEK-hOCT2, cimetidine", "setting": "[1]; cimetidine 1.5 mM", "result": "7.13±1.02×10^−7"},
      {"measurement": "platinum-DNA adduct level in HEK-hOCT2", "setting": "[1]; oxaliplatin 0.6 μM", "result": "0.0284±0.0020", "unit": "pmol/μg DNA"},
      {"measurement": "rb in HEK-hOCT2", "setting": "[1]; oxaliplatin 0.6 μM", "result": "9.37±0.66×10^−6"},
      {"measurement": "IC50", "setting": "[2]; SAR study Table 4, 7 hours of drug exposure, read-out: IC50 MDCK-MOCK", "result": "10.9 ± 3.66", "unit": "µM"},
      {"measurement": "IC50", "setting": "[2]; co-incubation with disopyramide 150 μM, read-out: IC50 in MDCK-MOCK, disopyramide-treated", "result": "32.2 ± 13", "unit": "µM"},
      {"measurement": "IC50", "setting": "[2]; disopyramide study (FIG. 2D), without disopyramide, read-out: IC50 in MDCK-MOCK, control", "result": "30.4 ± 9.28", "unit": "µM"},
      {"measurement": "IC50", "setting": "[2]; drug exposure 7 hour, MTT at 72 hours, Table 1, read-out: IC50 MDCK-MOCK", "result": "33 ± 9.12", "unit": "µM"},
      {"measurement": "IC50", "setting": "[2]; drug exposure 24 hour, MTT at 72 hours, Table 1, read-out: IC50 MDCK-MOCK", "result": "14.3 ± 5.55", "unit": "µM"},
      {"measurement": "IC50", "setting": "[2]; drug exposure 72 hour, Table 1, read-out: IC50 MDCK-MOCK", "result": "9.64 ± 1.85", "unit": "µM"},
      {"measurement": "IC50", "setting": "[3]; co-incubation with cimetidine 1.5 mM, read-out: IC50 in HEK-MOCK, cimetidine-treated", "result": "9.5 ± 2.95", "unit": "µM"},
      {"measurement": "IC50", "setting": "[3]; drug exposure 7 hour, Table 2, read-out: IC50 HEK-MOCK", "result": "2.99 ± 1.51", "unit": "µM"},
      {"measurement": "IC50", "setting": "[3]; drug exposure 24 hour, Table 2, read-out: IC50 HEK-MOCK", "result": "1.5 ± 0.69", "unit": "µM"},
      {"measurement": "IC50", "setting": "[3]; drug exposure 72 hour, Table 2, read-out: IC50 HEK-MOCK", "result": "0.93 ± 0.056", "unit": "µM"},
      {"measurement": "DNA-associated platinum level in MDCK-MOCK", "setting": "[4]; 20 μM, PB—Cl, 25 min", "result": "0.0034±0.00087", "unit": "pmol/μg DNA"},
      {"measurement": "rb in MDCK-MOCK", "setting": "[4]; 20 μM, PB—Cl, 25 min", "result": "1.12±0.29×10^−6"},
      {"measurement": "Pt-DNA adduct level in MDCK-MOCK", "setting": "[4]; 20 μM, PB—SO4, 25 min", "result": "0.0032±0.00042", "unit": "pmol/μg DNA"},
      {"measurement": "rb in MDCK-MOCK", "setting": "[4]; 20 μM, PB—SO4, 25 min", "result": "1.05±0.14×10^−6"},
      {"measurement": "platinum-DNA adduct level in MDCK-MOCK", "setting": "[4]; 2-hr exposure, oxaliplatin 10 μM, culture medium", "result": "0.0110±0.0010", "unit": "pmol/μg DNA"},
      {"measurement": "effect of disopyramide on platinum-DNA adduct formation in MDCK-MOCK", "setting": "[4]; disopyramide 150 μM", "result": "no effect"},
      {"measurement": "IC50", "setting": "[5]; drug exposure 7 hour", "result": "1.47 ± 0.28", "unit": "µM"},
      {"measurement": "IC50", "setting": "[5]; drug exposure 24 hour", "result": "0.47 ± 0.05", "unit": "µM"},
      {"measurement": "IC50", "setting": "[5]; drug exposure 72 hour", "result": "0.47 ± 0.12", "unit": "µM"}
    ]}
  ]
}
